Measurements published in patent publication US20010056184A1, “Pipecolinic acid derivatives, method of manufacturing the same and therapeutic agents containing these compounds” (priority 2000, published 2001).

What was measured:
Format in all cases: biochemical
[1] = molecular target: T1, human fibroblasts derived MMP-1 (type I collagenase) (Homo sapiens, UniProt P03956); experiment: MMP-1 (type I collagenase) inhibitory activities, fluorogenic substrate enzyme assay; conditions: for IC50: 37° C., 4 h, substrate 10 μM; for inhibition at 10 µM: at 10^−5M, NE means no effect, read-out: MMP-1 inhibition percent
T1 construct: human fibroblasts derived MMP-1 (Yagai Co. Ltd.) as enzyme; purchased Yagai Co. Ltd; host or cells: human fibroblasts
T1 sequence (P03956 100-469): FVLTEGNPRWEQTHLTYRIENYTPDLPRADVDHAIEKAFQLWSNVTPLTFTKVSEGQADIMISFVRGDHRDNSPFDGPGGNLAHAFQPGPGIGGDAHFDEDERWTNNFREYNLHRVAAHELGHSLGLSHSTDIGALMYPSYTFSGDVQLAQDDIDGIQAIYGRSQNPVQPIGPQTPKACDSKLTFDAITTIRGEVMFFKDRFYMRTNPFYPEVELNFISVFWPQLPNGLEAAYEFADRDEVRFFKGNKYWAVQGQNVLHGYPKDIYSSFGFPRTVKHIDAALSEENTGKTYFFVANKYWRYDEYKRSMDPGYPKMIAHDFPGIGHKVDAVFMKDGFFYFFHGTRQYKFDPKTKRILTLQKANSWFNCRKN
Description: Examination 1: MMP-1 (type I collagenase) inhibitory activities.
Inhibitory activities of MMP-1 (type I collagenase) activities were estimated by enzyme assay using human fibroblasts derived MMP-1 (Yagai Co. Ltd.) as enzyme, and MOCAc-Pro-Leu-Gly-Leu-A2pr(Dnp)-Ala-Arg-NH2 (Peptide Research Center, 3163-v) as substrate. Thus, MMP-1 (0.01 U/ml), test compound (10^−10˜10^−5 M), and the substrate (10 μM) were incubated in 50 mM Tris-HCl buffer (pH 7.4) containing 0.2M NaCl, 10 mM CaCl2, 0.02% NaN3, and 0.05% Brij 35 at 37° C. for 4 h. The reaction was stopped by adding of 4 volumes of sodium acetate buffer (pH 4.0), and the degradation of substrate was calculated by measurement with a fluorescence intensity (λ ex 328 nm, λ em 393 nm). Inhibition of degradation of substrate in the presence of compound was determined by comparison with the degradation percent of substrate in the absence of compound, and concentration of 50% inhibition (IC50 value) was calculated.

[2] = molecular target: T2, MMP-2 (gelatinase A) (Homo sapiens, UniProt P08253); experiment: MMP-2 (gelatinase A) inhibitory activities, fluorogenic substrate enzyme assay; conditions: 42° C., 2 h, substrate 10 μM
T2 construct: made in house; host or cells: COS-1 cells (secreted into culture medium)
T2 sequence (P08253 110-660): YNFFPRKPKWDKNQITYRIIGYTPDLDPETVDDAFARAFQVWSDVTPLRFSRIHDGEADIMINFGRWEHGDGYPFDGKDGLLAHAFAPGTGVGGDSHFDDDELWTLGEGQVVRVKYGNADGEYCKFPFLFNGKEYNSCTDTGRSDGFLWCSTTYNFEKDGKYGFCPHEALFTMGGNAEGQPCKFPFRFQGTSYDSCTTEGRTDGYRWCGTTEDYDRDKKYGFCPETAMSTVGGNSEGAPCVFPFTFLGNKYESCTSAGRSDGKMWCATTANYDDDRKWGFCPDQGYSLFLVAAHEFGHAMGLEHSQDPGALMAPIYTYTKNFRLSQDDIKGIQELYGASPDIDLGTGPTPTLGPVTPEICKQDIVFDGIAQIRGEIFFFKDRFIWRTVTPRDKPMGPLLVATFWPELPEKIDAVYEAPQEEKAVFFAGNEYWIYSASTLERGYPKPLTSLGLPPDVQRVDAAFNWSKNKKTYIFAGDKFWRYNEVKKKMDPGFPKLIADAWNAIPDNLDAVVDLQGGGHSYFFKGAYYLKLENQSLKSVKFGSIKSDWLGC
Description: (§1) Examination 2: MMP-2 (gelatinase A) and MMP-9 (gelatinase B) inhibitory activities.
(§2) Pro MMP-2 was obtained from culture medium separated from human pro-MMP-2 cDNA tranfected COS-1 cells. Pro MMP-2 activated by 1 mM (4-aminophenyl) mercury acetic acid and MMP-9, derived human fibrosarcome (Yagai Co. Ltd.), were used as enzyme respectively. Inhibition of both enzyme activities were estimated by enzyme assay using MOCAc-Pro-Leu-Gly-Leu-A2pr(Dnp)-Ala-Arg-NH2 (Peptide Research Center, 3163-v) as substrate. Thus, MMP-2 or MMP-9 (0.01 U/ml), test compound (several concentrations), and the substrate (10 μM) were incubated in 50 mM Tris - HCl buffer (pH 7.4) containing 0.2M NaCl, 10 mM CaCl2, 0.02% NaN3, and 0.05% Brij 35 at 42° C. for 2 h (MMP-2), 3 h (MMP-9) respectively. Inhibition of degradation of substrate in the presence of compound was determined by comparison with the degradation of substrate in the absence of compound, and concentration of 50% inhibition (IC50 value) was calculated.

[3] = molecular target: T3, MMP-9 (gelatinase B) (Homo sapiens, UniProt P14780); experiment: MMP-9 (gelatinase B) inhibitory activities, fluorogenic substrate enzyme assay; conditions: 42° C., 3 h, substrate 10 μM
T3 construct: MMP-9, derived human fibrosarcome (Yagai Co. Ltd.), were used as enzyme respectively; purchased Yagai Co. Ltd; host or cells: human fibrosarcoma
T3 sequence (P14780 94-707): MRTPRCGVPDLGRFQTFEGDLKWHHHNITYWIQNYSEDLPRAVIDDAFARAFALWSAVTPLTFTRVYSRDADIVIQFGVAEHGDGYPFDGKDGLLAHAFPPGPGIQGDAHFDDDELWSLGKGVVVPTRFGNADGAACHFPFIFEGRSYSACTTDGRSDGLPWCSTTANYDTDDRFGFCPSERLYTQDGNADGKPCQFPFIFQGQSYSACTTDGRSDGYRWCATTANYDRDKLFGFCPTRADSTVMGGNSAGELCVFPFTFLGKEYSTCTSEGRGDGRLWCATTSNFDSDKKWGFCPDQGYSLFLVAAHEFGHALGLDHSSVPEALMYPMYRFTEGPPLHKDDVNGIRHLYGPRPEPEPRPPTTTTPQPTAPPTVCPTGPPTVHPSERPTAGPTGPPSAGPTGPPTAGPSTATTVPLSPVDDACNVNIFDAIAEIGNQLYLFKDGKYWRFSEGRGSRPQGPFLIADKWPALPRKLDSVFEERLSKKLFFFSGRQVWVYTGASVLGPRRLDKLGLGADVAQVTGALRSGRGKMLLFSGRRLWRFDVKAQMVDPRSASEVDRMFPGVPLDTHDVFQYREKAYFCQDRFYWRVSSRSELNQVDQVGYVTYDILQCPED
Description: as §1, §2

[4] = molecular target: T4, Δ MT1-MMP (Δ MMP-14) (Homo sapiens, UniProt P50281); experiment: Δ MT1-MMP (Δ MMP-14) inhibitory activities, fluorogenic substrate enzyme assay; conditions: 37° C., 30 min, substrate 10 μM; read-out: ΔMMP-14 IC50
T4 construct: ProMT1-MMP cDNA encoded extracellular domain of pro Δ MT1-MMP was tranfected E. coli BL21DE3; made in house; host or cells: E. coli BL21DE3 (inclusion bodies, 8M urea, ion exchange)
Excerpt: Examination 3: Δ MT1-MMP (Δ MMP-14) inhibitory activities.
ProMT1-MMP cDNA encoded extracellular domain of pro Δ MT1-MMP was tranfected E. coli BL21DE3, pro Δ MT1-MMP collected as inclusion body was solved using 8M urea, and it was pulified by ion exchenge column chlomatography. Inhibition of enzyme activities were estimated by enzyme assay using activated Δ MT1-MMP, obtained from activation of pro Δ MT1-MMP by 10 μ/ml tripsine, and MOCAc-Pro-Leu-Gly-Leu-A2pr(Dnp)-Ala-Arg-NH2 (Peptide Research Center, 3163-v) as substrate. Thus, Δ MT1-MMP, test compound (several concentrations), and the substrate (10 μM) were incubated in 50 mM Tris - HCl buffer (pH 7.4) containing 0.2M NaCl, 10 mM CaCl2, 0.02% NaN3, 0.05% Brij 35, and 10 μM leuipeputine at 37° C. for 30 min. The reaction was stopped by adding of 4 volumes of sodium acetate buffer (pH 4.0), and the degradation of substrate was calculated by measurement with a fluorescence intensity (λ ex 328 nm, λ em 393 nm). Inhibition of degradation of substrate in the presence of compound was determined by comparison with the degradation of substrate in the absence of compound, and concentration of 50% inhibition (IC50 value) was calculated.

Row | Structure (SMILES) | IC50 [1] | IC50 [2] | IC50 [3] | IC50 [4] | inhibition at 10 µM [1]
1 | CC(C)CCCN[C@@H]1CCN(S(=O)(=O)c2cccs2)[C@@H](C(=O)NO)C1 [Compound 70, (2R, 4R)-2-Hydroxyaminocarbonyl-4-(4-methylpentylamino)-1-(2-thiophenesulfonyl)-piperidine] | 5600 nM | 740 nM | 83 nM | 380 nM | 
2 | COc1ccc(-c2ccc(S(=O)(=O)N3CC[C@@H](NC(=O)c4ccccc4)C[C@@H]3C(=O)NO)cc2)cc1 [Compound 59, (2R, 4R)-4-Benzoylamino-2-hydroxyaminocarbonyl-1-[4-(4-methoxyphenyl)benzenesulfonyl]-piperidine] |  | 180 nM | 11 nM | 95 nM | 57.6%
3 | COc1ccc(-c2cccc(S(=O)(=O)N3CC[C@@H](NC(=O)CCC(C)C)C[C@@H]3C(=O)NO)c2)cc1 [Compound 52, (2R, 4R)-2-Hydroxyaminocarbonyl-1-[3-(4-methoxyphenyl)benzenesulfonyl]-4-(4-methylpentanoylamino)-piperidine] |  | 210 nM | 420 nM | 79 nM | 48.9%
4 | CC(C)CCC(=O)N[C@@H]1CCN(S(=O)(=O)c2ccc([N+](=O)[O-])cc2)[C@@H](C(=O)NO)C1 [Compound 77, (2R, 4R)-2-Hydroxyaminocarbonyl-4-(4-methylpentanoylamino)-1-(4-nitrobenzenesulfonyl)-piperidine] |  | 480 nM | 740 nM | 2300 nM | 32.2%
5 | O=C(N[C@@H]1CCN(S(=O)(=O)c2ccc(-c3ccc(Cl)cc3)cc2)[C@@H](C(=O)O)C1)c1cccc[n+]1[O-] [Compound 89, (2R, 4R)-2-Carboxy-1-[4-(4-chlorophenyl)benzenesulfonyl]-4-(pyridyl-N-oxide-2-yl) carbonylamino-piperidine] |  | 28 nM | 200 nM | 7000 nM | 14%
6 | CC(C)CCC(=O)N[C@@H]1CCN(S(=O)(=O)c2cccs2)[C@@H](C(=O)NO)C1 [Compound 51, (2R, 4R)-2-Hydroxyaminocarbonyl-4-(4-methylpentanoylamino)-1-(2-thiophenesulfonyl)-piperidine] | 6.5 nM | 80 nM | 75 nM | 31 nM | 
7 | CC(C)CCC(=O)N[C@@H]1CCN(S(=O)(=O)c2ccc(O)cc2)[C@@H](C(=O)NO)C1 [Compound 63] | 510 nM | 28 nM | 31 nM | 17 nM | 

The next molecules have a lower IC50 [2] than those just listed; values first:

Row | IC50 [1] | IC50 [2] | IC50 [3] | IC50 [4] | inhibition at 10 µM [1] | Structure (SMILES)
8 | 2500 nM | 15 nM | 16 nM | 890 nM |  | COc1ccc(-c2ccc(S(=O)(=O)N3CC[C@@H](NC(=O)c4ccc([N+](=O)[O-])cc4)C[C@@H]3C(=O)NO)cc2)cc1 [Compound 75, (2R, 4R)-2-Hydroxyaminocarbonyl-1-[4-(4-methoxyphenyl)benzenesulfonyl]-4-(4-nitrobenzoylamino)-piperidine]
9 | 650 nM | 0.91 nM | 0.72 nM | 8.9 nM |  | COc1ccc(-c2ccc(S(=O)(=O)N3CC[C@@H](NC(C)=O)C[C@@H]3C(=O)NO)cc2)cc1 [Compound 64, (2R, 4R)-4-Acetylamino-2-hydroxyaminocarbonyl-1-[4-(4-methoxyphenyl)benzenesulfonyl]-piperidine]
10 | 870 nM | 0.93 nM | 3.2 nM | 45 nM |  | COc1ccc(CN[C@@H]2CCN(S(=O)(=O)c3ccc(-c4ccc(OC)cc4)cc3)[C@@H](C(=O)NO)C2)cc1 [Compound 62, (2R, 4R)-2-Hydroxyaminocarbonyl-4-(4-methoxybenzylamino)-1-[4-(4-methoxyphenyl)benzenesulfonyl]-piperidine]
11 | 4900 nM | 2.9 nM | 890 nM | 130 nM |  | O=C(N[C@@H]1CCN(S(=O)(=O)c2ccc(-c3ccc(O)cc3)cc2)[C@@H](C(=O)NO)C1)c1ccccc1 [Compound 60, (2R, 4R)-4-Benzoylamino-2-hydroxyaminocarbonyl-1-[4-(4-hydroxyphenyl)benzenesulfonyl]-piperidine]
12 | 460 nM | 1.8 nM | 11 nM | 100 nM |  | CC(C)CCC(=O)N[C@@H]1CCN(S(=O)(=O)c2ccc(-c3ccc(O)cc3)cc2)[C@@H](C(=O)NO)C1 [Compound 57, (2R, 4R)-2-Hydroxyaminocarbonyl-1-[4-(4-hydroxyphenyl)benzenesulfonyl]-4-(4-methylpentanoylamino) piperidine]
13 | 37 nM | 3 nM | 1.1 nM | 23 nM |  | CC(=O)N[C@@H]1CCN(S(=O)(=O)c2ccc(-c3ccc(Cl)cc3)cc2)[C@@H](C(=O)NO)C1 [Compound 72, (2R, 4R)-4-Acetylamino-1-[4-(4-chlorohenyl)benzenesulfonyl]-2-hydroxyaminocarbonyl-piperidine]
14 | 530 nM | 4.2 nM | 8.6 nM | 2.1 nM |  | COc1ccc(S(=O)(=O)N2CC[C@@H](NC(C)=O)C[C@@H]2C(=O)NO)cc1 [Compound 66, (2R, 4R)-4-Acetylamino-2-hydroxyaminocarbonyl-1-(4-methoxybenzenesulfonyl)-piperidine]
15 |  | 2.7 nM | 19 nM | 49 nM | 44.6% | COc1ccc(-c2ccc(S(=O)(=O)N3CC[C@@H](NCCCC(C)C)C[C@@H]3C(=O)NO)cc2)cc1 [Compound 61, (2R, 4R)-2-Hydroxyaminocarbonyl-1-[4-(4-methoxyphenyl)benzenesulfonyl]-4-(4-methylpentylamino)-piperidine]
